Assay [1] deals with p38 MAPK phosphorylation. Briefly: p38 MAPK phosphorylation (Western blot) in rat aorta after subfailure stretch injury. Conditions: NiPp 500 μM, 1 h, immunoblot. Format: cell-based. How it is done: Freshly isolated rat aorta (RA) was subjected to subfailure stretch and incubated in PL in the absence (S) or presence of NiPp (500 μM) for 1 h at room temperature. […] The percent relaxation was determined as a change to the maximal PE-induced contraction. n=5 rats; #p<0.05, two-way ANOVA. […] Quantification of relative phosphorylation to total p38MAPK level is shown. N=10. *p<0.05, in one-way ANOVA with Tukey post-test. NiPp restores endothelial dysfunction and reduced p38 MAPK phosphorylation induced by stretch injury in RA.
Vascular injury and treatment of RA. Abdominal RA was subjected to subfailure stretch to the haptic endpoint (˜200% the resting length) for 10 s and repeated twice as previously described and a segment was reserved as non-stretched control. The tissues were then cut into 1-2 mm rings and incubated for 1 h at room temperature in PL with or without NiPp (500 μM). To induce acidotic injury, thoracic RA were cut into 1-2 mm rings and pretreated in the absence or presence of NiPp (500 μM) in PL for 30 min. […]
Western blot Analysis. […] The protein-antibody complexes were visualized and quantified using the Odyssey Infrared Imaging System. Phosphorylation was calculated as a ratio of the phosphorylated protein to total protein and was then normalized to the untreated tissues (Ctrl) with the control value set as 1.0.

The test system of assay [2] is rat aorta. Briefly: Endothelial-dependent relaxation of rat aorta after acidosis (normal saline) injury. It counts as cell-based. Conditions: NiPp 500 μM 30 min pretreatment in PL, then NS with NiPp 500 μM 2 h. How it is done:
Freshly isolated rat aorta (RA) was cut into rings and then pretreated in the absence or presence of NiPp (500 μM) in PL for 30 min. Tissue rings were then transferred to normal saline (NS) to induce injury in the absence or presence of NiPp (500 μM) and continued incubation for 2 h at room temperature. After treatments, RA were suspended in the muscle bath, contracted with PE and then treated with escalating doses of carbachol (CCH; 10^−8 to 10^−5 M). The percent relaxation was determined as a change to the maximal PE-induced contraction. n=5-7 rats. *p<0.05 in two-way ANOVA with Tukey post-test. NiPp restores NS-induced endothelial dysfunction in RA.
Tissue rings were then transferred to NS and continued incubation in the absence or presence of NiPp (500 μM) for 2 h at room temperature. Control rings (Ctrl) were incubated in PL for 2.5 h. […] The percent relaxation was determined as a change to the maximal PE-induced contraction. […] Data are expressed as mean±SD. […]
This produced the maximal force tension relationship as previously described. […] Contractile responses were defined by stress, calculated using force generated by tissues as follows: stress (×10^5 N/m^2)=force (g)×0.0987/area, where area=wet weight (mg)/at maximal length (mm)]/1.055.
Relaxation was calculated as percent change in stress compared to the maximal PE-induced contraction (set as 100%). […]

Entries after “also recorded” stand apart in the source; their conditions may differ. Non-standard residues stand in square brackets, D forms with d. No end group written: not given here. pS = N[C@@H](COP(=O)(O)O)C(=O)O

On to “YARAAARQARASPAARRA(pS)AILPG (YARAAARQARASPAARRA[pS]AILPG) [NiPp, Cell-permeant phosphopeptide mimetic of Niban: transduction domain … conjugated to the region surrounding serine 602 of Niban]”, for which the “p38 MAPK phosphorylation relative to total p38 MAPK after stretch injury” value in assay [1] is recorded as “reduced”. For the same substance, in assay [2], the “endothelial function (percent relaxation to carbachol) after acidosis (normal saline) injury” value is given as “improved; also recorded: restores”.

For the origin of these results see patent US12583895B2, “Polypeptides for restoring endothelial function and methods of use thereof” (Vanderbilt University, priority 2019, dated 2026).
